Reference: ChEMBL document CHEMBL1201862, “PubChem BioAssay data set” (2004)
Active and inactive are the calls of the source.

How the values were obtained:
[1] = molecular target: T1, Kappa-type opioid receptor (Homo sapiens, UniProt P41145); test: KOR agonist analogs, imaging readout, SAR follow-up, image-based (AID 2359); type: functional
[2] = molecular target: T2, Mu-type opioid receptor (Homo sapiens, UniProt P35372); test: MOR antagonists, SAR follow-up, image-based (AID 2420); type: functional;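 further: compounds added before stimulation of receptor with agonist DAMGO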
[3] = molecular target: T3, Delta-type opioid receptor (Homo sapiens, UniProt P41143); test: DOR antagonists, SAR follow-up, image-based (AID 2357); type: functional
[4] = molecular target: T3, Delta-type opioid receptor; test: DOR agonists, SAR follow-up, image-based (AID 2370); type: functional
[5] = molecular target: T1, Kappa-type opioid receptor; test: KOR antagonists by imaging, SAR follow-up, image-based (AID 2348); type: functional
[6] = molecular target: T1, Kappa-type opioid receptor; test: kappa opioid receptor blockers, cell-based, luminescence, beta-arrestin, SAR follow-up (AID 2285); type: functional
[7] = molecular target: T2, Mu-type opioid receptor; test: MOR agonists by imaging, SAR follow-up, image-based (AID 2352); type: functional
[8] = molecular target: Intestinal-type alkaline phosphatase (Homo sapiens, UniProt P09923); test: human intestinal alkaline phosphatase activators, dose response, biochemical, luminescence, uHTS hits (AID 463120); type: functional
[9] = molecular target: T4, Cannabinoid receptor 1 (Homo sapiens, UniProt P21554); test: SAR analysis of agonists of the Cannabinoid Receptor 1 using an Image-Based Assay - Set 4. [Related pubchem assays (depositor defined):AID2013, AID2026]; type: functional
[10] = molecular target: T5, Cannabinoid receptor 2 (Homo sapiens, UniProt P34972); test: SAR analysis of antagonists of the Cannabinoid Receptor 2 using an Image-Based Assay - Set 3. [Related pubchem assays (depositor defined):AID2013, AID2026]; type: functional
[11] = molecular target: T4, Cannabinoid receptor 1; test: SAR analysis of antagonists of the Cannabinoid Receptor 1 using an Image-Based Assay - Set 4. [Related pubchem assays (depositor defined):AID2013, AID2026]; type: functional
[12] = molecular target: G-protein coupled receptor 55 (Homo sapiens, UniProt Q9Y2T6); test: SAR Analysis of Selective Antagonists of GPR55 using an Image-Based Assay - Set 4. [Related pubchem assays (depositor defined):AID2013, AID2026]; type: functional;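 further: antagonism of response to 5 µM lysophosphatidylinositol agonist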
[13] = molecular target: T6, G-protein coupled receptor 35 (Homo sapiens, UniProt Q9HC97); test: SAR analysis of Agonists of the GPR35 Receptor using an Image-Based Assay - Set 4. [Related pubchem assays (depositor defined):AID2013, AID2026]; type: functional
[14] = molecular target: T5, Cannabinoid receptor 2; test: SAR analysis of agonists of the Cannabinoid Receptor 2 using an Image-Based Assay - Set 3. [Related pubchem assays (depositor defined):AID2013, AID2026]; type: functional
[15] = molecular target: T6, G-protein coupled receptor 35; test: SAR analysis of Antagonists of the GPR35 Receptor using an Image-Based Assay - Set 6. [Related pubchem assays (depositor defined):AID2013, AID2026]; type: functional
[16] = molecular target: T7, Coagulation factor XII (Homo sapiens, UniProt P00748); type: functional;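 further: activated factor XIIa alpha cleaving a fluorogenic AMC peptide substrate; inhibitor potency from loss of enzyme activity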
T7 sequence (P00748 whole entry): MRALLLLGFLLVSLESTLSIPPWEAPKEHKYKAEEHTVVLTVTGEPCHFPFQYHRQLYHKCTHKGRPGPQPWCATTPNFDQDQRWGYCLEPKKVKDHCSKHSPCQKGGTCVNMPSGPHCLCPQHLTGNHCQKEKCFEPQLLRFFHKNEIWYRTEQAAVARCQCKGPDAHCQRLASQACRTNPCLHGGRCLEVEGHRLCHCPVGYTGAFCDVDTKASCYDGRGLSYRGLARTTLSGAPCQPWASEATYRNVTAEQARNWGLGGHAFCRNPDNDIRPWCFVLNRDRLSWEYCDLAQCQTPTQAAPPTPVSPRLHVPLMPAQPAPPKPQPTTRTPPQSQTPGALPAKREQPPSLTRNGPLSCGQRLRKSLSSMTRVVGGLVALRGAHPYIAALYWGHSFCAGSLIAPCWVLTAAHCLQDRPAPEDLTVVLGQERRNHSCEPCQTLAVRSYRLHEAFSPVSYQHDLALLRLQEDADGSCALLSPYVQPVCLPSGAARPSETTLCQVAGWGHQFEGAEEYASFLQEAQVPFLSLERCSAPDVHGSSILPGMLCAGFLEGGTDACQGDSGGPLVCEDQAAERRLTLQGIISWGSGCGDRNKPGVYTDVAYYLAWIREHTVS

[17] = cells
[18] = Counterscreen for AddAB inhibitors: absorbance-based bacterial cell-based high throughput dose response assay for inhibitors of bacterial viability. [Related pubchem assays (depositor defined):AID435030, AID449728, AID449731, AID488942, AID488955, AID488956]; type: functional
[19] = inhibitors of intracellular T. cruzi replication, confirmation, NIH3T3 host cells, beta-gal luminescence (AID 2044); type: functional, cell-based;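 further: intracellular parasites grown in NIH/3T3 mouse fibroblasts as host cells; luminescent beta-galactosidase reporter signal from transgenic T. cruzi replicating inside host cells; inhibitors lower the luminescence signal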
[20] = cytotoxicity toward NIH3T3 fibroblasts, dose response, counter-screen, cell-based, ATP luminescence, mouse fibroblasts (AID 2010); type: functional;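 further: cells exposed to compound for about 90 hours before reading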
[21] = NIH-3T3 fibroblast cytotoxicity, dose response, cytotoxicity control, cell-based, fluorescence, Alamar Blue, secondary assay (AID 2327); type: functional;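 further: NIH-3T3 mouse fibroblasts cultured with fluconazole at 8 µg/mL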
[22] = molecular target: Dual specificity tyrosine-phosphorylation-regulated kinase 1A (Rattus norvegicus, UniProt Q63470); type: biochemical, Homo sapiens
[23] = molecular target: Heat shock protein HSP 90-alpha (Homo sapiens, UniProt P07900); type: functional, organism-based
[24] = C. albicans growth with fluconazole, confirmation, fluorescence, retest (AID 2467); type: functional, cell-based
[25] = tested on: INS1; test: beta cell apoptosis inhibitors, cytokine rescue, dose response, luminescence, retest (AID 449756); type: functional, cell-based; settings: Rattus norvegicus;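 further: cell death triggered by IL-1 beta plus TNF-alpha plus IFN-gamma mixture; protective hits raise ATP signal compared with cytokine alone wells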
[26] = tested on: T-cell; test: inhibitors of CD8+ T cell–vesicle binding, dose response, mouse 2C CD8+ T cells, flow cytometry (AID 485284); type: functional
[27] = tested on: Streptococcus sp. 'group A'; test: growth inhibition of control SK(-) GAS strain, dose response, counter-screen for streptokinase expression inhibitor project, luminescence, kanamycin, BacTiterGlo, confirmation (AID 1900); type: functional, organism-based
[28] = molecular target: T8, Streptokinase A (Streptococcus pyogenes serotype M1, UniProt P10520); test: S. pyogenes streptokinase expression inhibitors, potency, dose response, plasminogen activation absorbance, OD405 (AID 1914); type: functional, Streptococcus pyogenes M1 GAS;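 further: secreted streptokinase activity via plasminogen activation per viability signal from cell pellet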
T8 sequence (P10520 whole entry): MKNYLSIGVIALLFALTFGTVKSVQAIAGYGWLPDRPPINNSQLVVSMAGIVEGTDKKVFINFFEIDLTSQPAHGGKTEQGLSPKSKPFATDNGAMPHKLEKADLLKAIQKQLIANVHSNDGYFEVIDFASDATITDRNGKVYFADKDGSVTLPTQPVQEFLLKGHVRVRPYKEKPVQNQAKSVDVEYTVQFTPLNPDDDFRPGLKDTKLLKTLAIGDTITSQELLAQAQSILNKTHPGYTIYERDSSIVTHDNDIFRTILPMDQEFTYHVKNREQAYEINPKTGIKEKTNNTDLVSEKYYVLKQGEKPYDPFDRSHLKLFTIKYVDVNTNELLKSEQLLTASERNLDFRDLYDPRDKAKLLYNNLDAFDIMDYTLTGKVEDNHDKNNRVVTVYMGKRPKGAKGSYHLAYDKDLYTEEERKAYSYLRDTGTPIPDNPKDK

[29] = tested on: Streptococcus; test: Group A Streptococcus viability loss, dose response, counter-screen for streptokinase expression inhibitor project, luminescence, BacTiterGlo (AID 1915); type: functional, organism-based;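 further: potency for reduction of bacterial viability or growth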

T1 sequence (P41145 whole entry): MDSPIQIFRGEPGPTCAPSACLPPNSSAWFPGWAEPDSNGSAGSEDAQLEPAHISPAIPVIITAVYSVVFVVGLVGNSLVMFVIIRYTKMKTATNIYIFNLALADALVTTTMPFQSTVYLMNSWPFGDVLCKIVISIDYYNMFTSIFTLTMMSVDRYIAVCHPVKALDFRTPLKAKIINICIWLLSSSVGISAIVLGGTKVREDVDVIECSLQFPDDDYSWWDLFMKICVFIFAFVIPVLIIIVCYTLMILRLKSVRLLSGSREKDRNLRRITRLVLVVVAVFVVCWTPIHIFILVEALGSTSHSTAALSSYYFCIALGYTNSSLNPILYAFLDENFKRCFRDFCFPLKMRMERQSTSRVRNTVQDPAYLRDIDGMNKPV
T2 sequence (P35372 whole entry): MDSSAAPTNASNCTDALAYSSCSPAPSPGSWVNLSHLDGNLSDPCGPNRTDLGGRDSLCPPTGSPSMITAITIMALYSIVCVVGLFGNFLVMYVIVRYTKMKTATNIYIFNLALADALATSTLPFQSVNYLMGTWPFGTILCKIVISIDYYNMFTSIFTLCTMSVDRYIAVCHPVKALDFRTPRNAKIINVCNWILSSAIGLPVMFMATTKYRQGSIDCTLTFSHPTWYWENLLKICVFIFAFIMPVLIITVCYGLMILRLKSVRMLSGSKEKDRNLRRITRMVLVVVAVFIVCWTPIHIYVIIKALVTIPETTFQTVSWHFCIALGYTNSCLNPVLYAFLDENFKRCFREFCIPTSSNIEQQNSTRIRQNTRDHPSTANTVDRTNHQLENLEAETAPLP
T3 sequence (P41143 whole entry): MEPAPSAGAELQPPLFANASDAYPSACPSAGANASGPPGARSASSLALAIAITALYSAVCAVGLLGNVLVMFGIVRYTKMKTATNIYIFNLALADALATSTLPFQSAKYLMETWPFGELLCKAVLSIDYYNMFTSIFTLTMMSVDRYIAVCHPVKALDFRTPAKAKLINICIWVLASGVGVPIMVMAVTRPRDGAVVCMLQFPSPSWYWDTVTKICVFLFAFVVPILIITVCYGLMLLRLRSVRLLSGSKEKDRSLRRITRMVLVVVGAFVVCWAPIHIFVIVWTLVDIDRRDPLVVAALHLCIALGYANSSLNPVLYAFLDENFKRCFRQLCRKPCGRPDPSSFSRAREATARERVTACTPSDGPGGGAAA
T5 sequence (P34972 whole entry): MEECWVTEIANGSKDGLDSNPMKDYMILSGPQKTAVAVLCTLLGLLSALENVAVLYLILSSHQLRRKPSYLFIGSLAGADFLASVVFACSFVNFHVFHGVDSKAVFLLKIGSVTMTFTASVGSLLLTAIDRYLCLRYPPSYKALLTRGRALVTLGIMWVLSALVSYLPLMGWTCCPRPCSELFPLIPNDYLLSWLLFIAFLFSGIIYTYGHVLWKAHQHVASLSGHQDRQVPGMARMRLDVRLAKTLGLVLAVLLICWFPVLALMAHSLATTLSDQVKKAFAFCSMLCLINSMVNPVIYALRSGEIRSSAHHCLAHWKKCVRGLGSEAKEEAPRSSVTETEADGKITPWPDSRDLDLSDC
T4 sequence (P21554 whole entry): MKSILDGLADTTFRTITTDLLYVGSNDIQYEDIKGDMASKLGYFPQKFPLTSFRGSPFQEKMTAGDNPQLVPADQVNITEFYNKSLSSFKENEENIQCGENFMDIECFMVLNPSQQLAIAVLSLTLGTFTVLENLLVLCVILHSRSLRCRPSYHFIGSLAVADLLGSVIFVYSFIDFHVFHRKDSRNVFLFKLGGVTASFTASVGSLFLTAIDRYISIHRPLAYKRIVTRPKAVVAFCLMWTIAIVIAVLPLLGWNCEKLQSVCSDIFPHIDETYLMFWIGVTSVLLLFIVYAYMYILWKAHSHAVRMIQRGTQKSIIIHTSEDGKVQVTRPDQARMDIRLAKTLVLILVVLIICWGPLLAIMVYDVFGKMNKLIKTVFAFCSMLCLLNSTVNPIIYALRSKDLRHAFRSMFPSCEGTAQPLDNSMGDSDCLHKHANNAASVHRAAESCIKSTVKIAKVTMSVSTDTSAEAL
T6 sequence (Q9HC97 whole entry): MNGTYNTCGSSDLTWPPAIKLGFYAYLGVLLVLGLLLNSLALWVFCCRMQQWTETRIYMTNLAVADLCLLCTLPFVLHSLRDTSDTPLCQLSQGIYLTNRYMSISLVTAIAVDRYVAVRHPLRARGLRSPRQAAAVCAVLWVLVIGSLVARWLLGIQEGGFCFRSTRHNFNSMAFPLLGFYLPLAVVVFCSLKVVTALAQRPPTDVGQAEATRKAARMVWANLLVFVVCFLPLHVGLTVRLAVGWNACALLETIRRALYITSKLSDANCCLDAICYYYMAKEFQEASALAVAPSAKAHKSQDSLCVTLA
Intestinal-type alkaline phosphatase, sequence (P09923 whole entry): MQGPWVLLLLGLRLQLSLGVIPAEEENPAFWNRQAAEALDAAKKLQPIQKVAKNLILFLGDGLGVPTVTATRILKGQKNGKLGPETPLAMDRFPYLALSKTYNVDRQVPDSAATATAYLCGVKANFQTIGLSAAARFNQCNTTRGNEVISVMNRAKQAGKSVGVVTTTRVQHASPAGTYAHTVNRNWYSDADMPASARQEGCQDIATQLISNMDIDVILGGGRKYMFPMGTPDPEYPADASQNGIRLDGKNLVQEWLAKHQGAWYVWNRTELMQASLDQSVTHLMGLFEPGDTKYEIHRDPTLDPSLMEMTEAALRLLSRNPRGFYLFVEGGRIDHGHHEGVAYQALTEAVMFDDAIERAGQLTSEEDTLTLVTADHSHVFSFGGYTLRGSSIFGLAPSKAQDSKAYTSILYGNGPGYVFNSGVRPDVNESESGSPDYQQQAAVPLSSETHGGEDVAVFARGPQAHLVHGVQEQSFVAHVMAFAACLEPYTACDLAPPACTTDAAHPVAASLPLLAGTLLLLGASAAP
G-protein coupled receptor 55, sequence (Q9Y2T6 whole entry): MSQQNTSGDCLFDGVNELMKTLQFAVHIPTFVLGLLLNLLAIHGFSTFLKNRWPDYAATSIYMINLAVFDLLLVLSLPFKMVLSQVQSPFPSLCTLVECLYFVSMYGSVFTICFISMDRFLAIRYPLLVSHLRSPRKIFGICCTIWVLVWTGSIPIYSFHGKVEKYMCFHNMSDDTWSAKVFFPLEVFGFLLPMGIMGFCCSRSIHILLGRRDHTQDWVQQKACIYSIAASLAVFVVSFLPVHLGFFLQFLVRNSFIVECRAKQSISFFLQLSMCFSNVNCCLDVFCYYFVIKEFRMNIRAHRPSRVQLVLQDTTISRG

With `O=C(NC(NC(=S)Nc1ccc(Cl)c(Cl)c1)C(Cl)(Cl)Cl)OCc1ccccc1` (centres undefined) as the compound, how does the EC50 [1] read?
The EC50 was > 32 µM (inactive).

What about the IC50 [2] of the same compound?
The IC50 was > 32 µM (inactive).

What about the IC50 [3] of the same compound?
Its IC50 is > 32 µM (inactive).

And the EC50 [4]?
The EC50 was > 32 µM (inactive).

And the IC50 [5]?
The IC50 was 11.9 µM (inactive).

What about the IC50 [6] of the same compound?
The IC50 was > 10 µM (inactive).

And the EC50 [7]?
The EC50 was > 32 µM (inactive).

Which EC50 [8] does the source give for `CC(C)CCNc1ncnc2c1nnn2Cc1ccccc1Cl` here?
Its EC50 is > 100 µM (inactive).

For `CCOc1ccc(-c2n[nH]c(C)c2-c2ccc(OC)cc2)c(O)c1`, which EC50 [9] is on record?
Its EC50 is > 32 µM (inactive).

And the IC50 [10]?
Its IC50 is 3.79 µM (active).

What about the IC50 [11] of the same compound?
The IC50 was 0.85 µM (active).

What about the IC50 [12] of the same compound?
Its IC50 is 15.6 µM (inactive).

And the EC50 [13]?
Its EC50 is 25.5 µM (inactive).

And the EC50 [14]?
The EC50 was 31.6 µM (inactive).

And the IC50 [15]?
The IC50 was > 32 µM (inactive).

With `COc1cccc(NC(C)(C)c2nnnn2-c2c(C)cccc2C)c1` as the compound, how does the IC50 [16] read?
Its IC50 is > 50 µM (inactive).

For `O=C(NCc1cccnc1)c1ccc([N+](=O)[O-])o1`, which EC50 [17] is on record?
Its EC50 is 0.137 µM (active).

What about the IC50 [18] of the same compound?
The IC50 was > 39.5 µM (inactive).

What about the EC50 [19] of the same compound?
The EC50 was < 0.1 µM (active).

What about the EC50 [20] of the same compound?
Its EC50 is > 60 µM (inconclusive).

What does the source list for `C=CC(C)(C)c1c(O)c(CC=C(C)C)c(O)c2c(=O)c3ccc(O)c(O)c3oc12` [GERONTOXANTHONE I]?
EC50 [21]: > 160 µM (inconclusive); AC50 [22]: 8.27 µM (active); AC50 [23]: 8.03 µM (active); EC50 [24]: > 38 µM (not active); AC50 [25]: 3.34 µM (active); EC50 [26]: 2.86 µM (active); EC50 [27]: 2.29 µM (active); EC50 [28]: > 150 µM (not active); EC50 [29]: 7.75 µM (active)
